Experimental data reported in the NIST ThermoML archive (doi:10.1016/j.fluid.2008.03.004).

Assay: xn = mol fraction of the nth substance listed
Settings: 101 kPa, Liquid; for speed of sound: Sing-around technique in a fixed-path interferometer

Cc1cccc(C)c1 [1,3-dimethylbenzene] + COC(C)(C)C
Settings | mass density, 295.65 K [kg/m3] | mass density, 298.15 K [kg/m3] | mass density, 300.65 K [kg/m3] | mass density, 303.15 K [kg/m3] | speed of sound, 298.15 K [m/s] | speed of sound, 300.65 K [m/s] | speed of sound, 303.15 K [m/s] | speed of sound, 305.65 K [m/s]
x2 = 0 | – | 859.89 | 857.742 | 855.593 | 1320.9 | 1310.6 | 1300.3 | 1290
x2 = 0.047 | – | 854.604 | 852.439 | 850.273 | 1308.8 | 1298.5 | 1288.1 | 1277.8
x2 = 0.115 | – | 846.749 | 844.562 | 842.425 | 1291 | 1280.5 | 1270 | 1259.7
x2 = 0.212 | – | 835.447 | 833.221 | 830.994 | 1264.3 | 1253.8 | 1243.3 | 1232.9
x2 = 0.304 | – | 824.615 | 822.354 | 820.086 | 1239.4 | 1228.8 | 1218.2 | 1207.7
x2 = 0.399 | – | 813.059 | 810.758 | 808.453 | 1213.1 | 1202.3 | 1191.6 | 1180.9
x2 = 0.5 | 802.93 | 800.588 | 798.24 | 795.888 | 1184.7 | 1173.9 | 1163.1 | 1152.3
x2 = 0.601 | 790.285 | 787.899 | 785.504 | 783.103 | 1156 | 1144.9 | 1133.8 | 1122.8
x2 = 0.651 | 783.85 | 781.433 | 779.011 | 776.58 | 1140.4 | 1129.3 | 1118.3 | 1107.3
x2 = 0.794 | 765.033 | 762.537 | 760.033 | 757.521 | 1098.1 | 1086.9 | 1075.7 | 1064.7
x2 = 0.898 | 751.19 | 748.629 | 746.061 | 743.481 | 1066.9 | 1055.5 | 1044 | 1032.7
x2 = 0.954 | 743.594 | 740.997 | 738.393 | 735.774 | 1050.9 | 1039.4 | 1027.8 | 1016.3
